Results: patent US20150105252A1, “SUBSTITUTED PYRAZOLES AS HERBICIDES” (E I DU PONT DE NEMOURS AND COMPANY, priority 2013, published 2015)

Key:
barnyardgrass [1] = assay: Test B flood; assay type: in vivo, Echinochloa crus-galli; details: 250 g ai/ha, visual rating on 0 to 100 scale (0 no effect, 100 complete control), 13 to 15 days
How it was run: (§1)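 2-leaf plants; pots flooded 3 cm over soil; compound added to paddy water, depth kept constant. Greenhouse 13–15 d. Visual rating vs controls, 0–100 scale (100 = complete control); dash = no result.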

pigweed = assay: Test C preemergence; assay type: in vivo, Amaranthus retroflexus; details: for Plant response rating (scale of 0 to 100), Pigweed: Preemergence, 250 g ai/ha; for Pigweed plant response rating / Plant response rating, Pigweed: preemergence; for Plant response rating, Pigweed: scale 0 to 100, 0 = no effect, 100 = complete control
How it was run: (§2)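 In this greenhouse assay, seeded soil (loam plus sand) or emerged seedlings in peat-vermiculite medium were treated with formulated compound. Roughly two weeks later (13–15 days), each species was scored visually relative to controls, from 0 for no effect to 100 for complete control.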

foxtail, giant [2] = assay: Test A postemergence; assay type: in vivo, Setaria faberii
How it was run: (§3)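 Visual injury ratings, 0 = no effect to 100 = complete control, taken about 10 days after treatment against untreated controls. Test chemicals, in a non-phytotoxic surfactant-containing solvent, were sprayed onto soil preemergence or onto one- to two-leaf plants (2–10 cm) postemergence, in loam–sand soil under greenhouse conditions.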

velvetleaf [3] = assay: Test A preemergence; assay type: in vivo, Abutilon theophrasti; details: preemergence
How it was run: as §3

velvetleaf [4] = assay: Test A postemergence; assay type: in vivo, Abutilon theophrasti
How it was run: as §3

barnyardgrass [5] = assay: Test A preemergence; assay type: in vivo, Echinochloa crus-galli; details: preemergence
How it was run: as §3

foxtail, giant [6] = assay: Test A preemergence; assay type: in vivo, Setaria faberii; details: preemergence
How it was run: as §3

corn = assay: Test A preemergence; assay type: in vivo, Zea mays; details: preemergence
How it was run: as §3

wheat = assay: Test A preemergence; assay type: in vivo, Triticum aestivum; details: preemergence
How it was run: as §3

crabgrass, large = assay: Test C preemergence; assay type: in vivo, Digitaria sanguinalis; details: for Plant response rating (scale of 0 to 100), Crabgrass, Large: Preemergence, 250 g ai/ha; for Crabgrass, Large plant response rating / Plant response rating, Crabgrass, Large: preemergence; for Plant response rating, Crabgrass, Large: scale 0 to 100, 0 = no effect, 100 = complete control
How it was run: as §2

barnyardgrass [7] = assay: Test A postemergence; assay type: in vivo, Echinochloa crus-galli
How it was run: as §3

sedge, umbrella = assay: Test B flood; assay type: in vivo, Cyperus difformis; details: 250 g ai/ha, visual rating on 0 to 100 scale (0 no effect, 100 complete control), 13 to 15 days
How it was run: as §1

nutsedge, yellow = assay: Test C preemergence; assay type: in vivo, Cyperus esculentus; details: for Plant response rating (scale of 0 to 100), Nutsedge, Yellow: Preemergence, 250 g ai/ha; for Nutsedge, Yellow plant response rating / Plant response rating, Nutsedge, Yellow: preemergence; for Plant response rating, Nutsedge, Yellow: scale 0 to 100, 0 = no effect, 100 = complete control
How it was run: as §2

morningglory = assay: Test C preemergence; assay type: in vivo, Ipomoea coccinea; details: for Plant response rating (scale of 0 to 100), Morningglory: Preemergence, 250 g ai/ha; for Morningglory plant response rating / Plant response rating, Morningglory: preemergence; for Plant response rating, Morningglory: scale 0 to 100, 0 = no effect, 100 = complete control
How it was run: as §2

[8] = 31 g ai/ha, visual rating, scale 0 to 100 (0 no effect, 100 complete control), 13 to 15 days
[9] = 125 g ai/ha, scale 0 to 100, 0 is no effect, 100 is complete control
[10] = Postemergence, 500 g ai/ha, visual rating after approx. 10 days, 0 to 100 scale (0 no effect, 100 complete control)
[11] = postemergence, 125 g ai/ha, about 10 days, visual rating on 0 to 100 scale (0 no effect, 100 complete control)
[12] = 125 g ai/ha, visual injury, 0 to 100 scale, approx. 10 days
[13] = 500 g ai/ha, visual injury after approx. 10 days, 0 to 100 scale (0 no effect, 100 complete control)
[14] = 62 g ai/ha, scale 0 to 100 (0 no effect, 100 complete control), 13 to 15 days

Row | SMILES | Plant response rating, Barnyardgrass (barnyardgrass [1]) | Plant response rating (scale of 0 to 100), Pigweed (pigweed) | Pigweed plant response rating (pigweed; [8]) | Pigweed plant response rating (pigweed; [9]) | Foxtail, Giant plant response rating (foxtail, giant [2]; [10]) | Foxtail, Giant plant response rating (foxtail, giant [2]; [11]) | Velvetleaf plant response rating (velvetleaf [3]; [12]) | Velvetleaf plant response rating (velvetleaf [3]; [13]) | Velvetleaf plant response rating (velvetleaf [4]; [10]) | Velvetleaf plant response rating (velvetleaf [4]; [11]) | Barnyardgrass plant response rating (barnyardgrass [5]; [12]) | Barnyardgrass plant response rating (barnyardgrass [5]; [13]) | Foxtail, Giant plant response rating (foxtail, giant [6]; [12]) | Foxtail, Giant plant response rating (foxtail, giant [6]; [13]) | Corn plant response rating (corn; [12]) | Corn plant response rating (corn; [13]) | Wheat plant response rating (wheat; [12]) | Wheat plant response rating (wheat; [13]) | Plant response rating (scale of 0 to 100), Crabgrass, Large (crabgrass, large) | Crabgrass, Large plant response rating (crabgrass, large; [8]) | further results
1 | CCc1cc(C(=O)NC(C)C)nn1Cc1ccnc(C(F)(F)F)c1 [Compound 103] | 40 | 100 | 100 | 100 | 90 | 90 | 100 | 100 | 80 | 70 | 100 | 100 | 100 | 100 | 70 | 90 | 40 | 100 | 100 | 100 | Plant response rating, Pigweed (pigweed; 62 g ai/ha, 13 to 15 days): 100; Plant response rating, Crabgrass, Large (crabgrass, large; 62 g ai/ha, 13 to 15 days): 100; Crabgrass, Large plant response rating (crabgrass, large; [9]): 100; Barnyardgrass plant response rating (barnyardgrass [7]; [10]): 90; Barnyardgrass plant response rating (barnyardgrass [7]; [11]): 90; Plant response rating, Sedge, Umbrella (sedge, umbrella): 90; Plant response rating (scale of 0 to 100), Nutsedge, Yellow (nutsedge, yellow): 95; Nutsedge, Yellow plant response rating (nutsedge, yellow; [8]): 40; Plant response rating, Nutsedge, Yellow (nutsedge, yellow; 62 g ai/ha, 13 to 15 days): 80; Nutsedge, Yellow plant response rating (nutsedge, yellow; [9]): 85; Plant response rating (scale of 0 to 100), Morningglory (morningglory): 100; Morningglory plant response rating (morningglory; [8]): 100; Plant response rating, Morningglory (morningglory; 62 g ai/ha, 13 to 15 days): 100; Morningglory plant response rating (morningglory; [9]): 100
2 | CCOc1cc(C(=O)NCC(F)(F)F)nn1Cc1ccnc(C(F)(F)F)c1 [Compound 104] | 75 | 100 | 100 | 100 | 90 | 90 | 100 | 100 | 100 | 90 | 100 | 100 | 100 | 100 | 60 | 80 | 90 | 100 | 100 | 100 | Plant response rating, Pigweed (pigweed; 62 g ai/ha, 13 to 15 days): 100; Plant response rating, Crabgrass, Large (crabgrass, large; 62 g ai/ha, 13 to 15 days): 100; Crabgrass, Large plant response rating (crabgrass, large; [9]): 100; Barnyardgrass plant response rating (barnyardgrass [7]; [10]): 90; Barnyardgrass plant response rating (barnyardgrass [7]; [11]): 90; Plant response rating, Sedge, Umbrella (sedge, umbrella): 0; Plant response rating (scale of 0 to 100), Nutsedge, Yellow (nutsedge, yellow): 98; Nutsedge, Yellow plant response rating (nutsedge, yellow; [8]): 70; Plant response rating, Nutsedge, Yellow (nutsedge, yellow; 62 g ai/ha, 13 to 15 days): 95; Nutsedge, Yellow plant response rating (nutsedge, yellow; [9]): 98; Plant response rating (scale of 0 to 100), Morningglory (morningglory): 100; Morningglory plant response rating (morningglory; [8]): 100; Plant response rating, Morningglory (morningglory; 62 g ai/ha, 13 to 15 days): 100; Morningglory plant response rating (morningglory; [9]): 100
3 | CCCc1cc(C(=O)NCC(F)(F)F)nn1Cc1ccnc(C(F)(F)F)c1 [Compound 105] | 90 | 100 | 100 | 100 | 100 | 100 | 100 | 100 | 100 | 100 | 100 | 100 | 100 | 100 | 60 | 70 | 60 | 100 | 100 | 100 | Pigweed plant response rating (pigweed; [14]): 100; Crabgrass, Large plant response rating (crabgrass, large; [14]): 100; Crabgrass, Large plant response rating (crabgrass, large; [9]): 100; Barnyardgrass plant response rating (barnyardgrass [7]; [10]): 100; Barnyardgrass plant response rating (barnyardgrass [7]; [11]): 90; Plant response rating, Sedge, Umbrella (sedge, umbrella): 95; Plant response rating (scale of 0 to 100), Nutsedge, Yellow (nutsedge, yellow): 95; Nutsedge, Yellow plant response rating (nutsedge, yellow; [8]): 50; Nutsedge, Yellow plant response rating (nutsedge, yellow; [14]): 85; Nutsedge, Yellow plant response rating (nutsedge, yellow; [9]): 95; Plant response rating (scale of 0 to 100), Morningglory (morningglory): 100; Morningglory plant response rating (morningglory; [8]): 100; Morningglory plant response rating (morningglory; [14]): 100; Morningglory plant response rating (morningglory; [9]): 100
